US7563805B2, “Tri-, tetra-substituted-3-aminopyrrolidine derivative” (Daiichi Pharmaceutical Co., Ltd., priority 2005, dated 2009)
In brackets after ≈: the same amount, converted by molar mass. Where two headings read alike, the source gives them in different places.

Key:
[1] = design: species or system guinea pigs (Slc:Hertley); conditions: guinea pig, in vivo; for Average score in GPMT: male, Slc:Hertley
Experimental: Guinea pig maximization test (GPMT) which is a widely accepted model for delayed antigenicity was conducted according to the method of Mugnusson et al. (J. invest. Dermatol., 52, 1969) by using a cutaneous sensitization concentration of 1% and a patch sensitization and induction concentration of 10%. At day 1, the animal was sensitized by cutaneously administering the test substance (the quinolone compounds and the control: vehicle, vaseline) (1% solution in physiological saline+FCA emulsion) at the back of the head of the shaved guinea pigs (7 week old male Slc:Hertley). At day 7, lauryl sodium sulfate (SLC) was applied for stimulus (adjuvant treatment), and on the next day, the test substance coated on a wax paper was patched onto the shaved skin to for sealed sensitization, and after 48 hours (at day 10), the waxed paper was removed. The skin reaction was observed upon the removal. On day 22, the test substance (10%) was patched onto the anterior side of the body for induction, and the induction patching was removed after 24 hours. On the next day (at day 24) and the next day (at day 25), the skin reaction was evaluated according to the description of the document as mentioned above. Erythema and edema were scored, and the case with the total score of 2 or higher was evaluated to be positive with the maximum of the score being 7.

[2] = in vivo; cited from earlier work
[3] = tested on: S. epidermidis, 56500; test: antibacterial activity (MIC), standard method of Japanese Society of Chemotherapy; conditions: Staphylococcus epidermidis, 56500, S. epidermidis
[4] = tested on: S. pneumoniae, J24 (penicillin-intermediate resistant bacteria); test: as above; conditions: Streptococcus pneumoniae
[5] = tested on: S. aureus, 87037 (LVFX-resistant MRSA); test: as above; conditions: Staphylococcus aureus, MRSA, S. aureus, 87037 (LVFX-resistant MRSA)
[6] = tested on: E. coli NIHJ; test: as above; conditions: Escherichia coli
[7] = tested on: P. vulgaris, 08601; test: as above; conditions: Proteus vulgaris, 08601, P. vulgaris
[8] = tested on: P. aeruginosa, 32104; test: as above; conditions: Pseudomonas aeruginosa
[9] = in vivo; conditions: male, Crj:CD IGS, rat, po, 5 mg/kg
Experimental: (§1) The Comparative compound was also evaluated by the same procedure.
(§2) The test substance was orally administered to fasted rats (7 week old male Crj:CD IGS rats purchased from Charles River Laboratories Japan, Inc.) at a dose of 5 mg/kg.
(§3) Animals of absorption test group (3 animals per group) were sacrificed by bleeding under etherization at 0.25, 0.5, 1, 2, 4, and 8 hours after the drug administration, and blood, lever, kidney, and lung were collected. The blood was centrifuged (3000 rpm×15 minutes, 4° C.) after coagulation to collect serum. Tissue was homogenized after adding 3 to 5 mL of 0.1 mol/l phosphate buffer (pH 7.0), and the supernatant was collected from the homogenate (3000 rpm×15 minutes, 4° C.).
(§4) Animals of excretion test group (3 animals per group) were placed in a metabolic cage, and the urine of 0 to 4 hours and 4 to 24 hours after the administration was collected in a water-cooled container. Simultaneously with the collection of the urine, the cage was also washed with about 15 mL of 0.1 mol/l phosphate buffer (pH 7.0) to collect the urine attached to the cage. For evaluation of conjugates such as glucuronide, the collected sample was also aliquoted and hydrolyzed with an equal amount of 1 mol/l aqueous solution of sodium hydroxide, and the hydrolysate was neutralized with 0.5 mol/l hydrochloric acid and measured for its concentration. The concentration was measured by LC-MS/MS method.
(§5) Pharmacokinetic parameters of the each drug in rat were calculated by from the time course of the average concentration by using pharmacokinetic analysis software PSAG-CP (AS Medica Inc.) in a manner not dependent on the model animal.

[10] = tested on: bone marrow cells (polychromatic erythrocytes); test: mouse bone marrow micronucleus test; format: in vivo, Slc:ddY male mice; conditions: single i.v. dose, 24 h, Example 2: 50, 100 mg/kg, Example 3: 100, 150 mg/kg, Example 9: 50, 100, 150 mg/kg
Experimental: The control was 0.1 mol/l NaOH/physiological saline solvent, and the positive control was cyclophosphamide (cyclophoshamide, CP) dissolved and diluted in physiological saline. All samples were sterilized by filtering through Milex GS filter (0.22 μm). Each solution was intravenously administered at a dose of 10 mL/kg in single dose at an administration rate of 0.2 mL/min.
Bone marrow cells were collected from thigh bone at 24 hours after the administration, and smear preparation was prepared. After staining with acridine orange, 1000 polychromatic erythrocytes per animal were observed under fluorescence microscope to count frequency of micrronucleated polychromatic erythrocyte and ratio of the orthochromatic erythrocytes to the polychromatic erythrocyte in 1000 erythrocytes.

[11] = tested on: S. aureus, 209P; test: antibacterial activity (MIC), standard method of Japanese Society of Chemotherapy; conditions: Staphylococcus aureus
[12] = target: hERG K+ channel (Homo sapiens, UniProt Q12809); test: hERG-K^+ channel blocking effect
[13] = male, Crj:CD IGS, rat, in vivo, po, 5 mg/kg
Experimental: as §1, §2, §3, §4, §5

[14] = tested on: P. aeruginosa, 32121; test: antibacterial activity (MIC), standard method of Japanese Society of Chemotherapy; conditions: Pseudomonas aeruginosa
[15] = tested on: E. faecalis, ATCC 19433; test: as above; conditions: Enterococcus faecalis, ATCC19433, E. faecalis
[16] = tested on: S. marscecens, 10100; test: as above
[17] = female, cynomolgus monkey, in vivo, 5 mg/kg
[18] = tested on: Mycobacterium tuberculosis (sensitive bacteria); test: anti-Mycobacterium tuberculosis (sensitive bacteria) activity, MIC; format: cell-based
[19] = in vivo; conditions: female, cynomolgus monkey, po, 5 mg/kg
[20] = tested on: Mycobacterium tuberculosis (quinolone sensitive); test: anti-Mycobacterium tuberculosis (quinolone sensitive) activity, MIC; format: cell-based
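Throughout, for Tissue AUC0-8 h, Kidney: fasted 7-week-old rats, three per group, tissue sampled up to 8 h post-dose and urine collected over 0–24 h, with conjugates measured after alkaline hydrolysis, concentrations by LC-MS/MS.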
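Throughout, for Tissue AUC0-8 h, Liver: fasted 7-week-old rats, three per group, tissue sampled up to 8 h post-dose and urine collected over 0–24 h, with conjugates measured after alkaline hydrolysis, concentrations by LC-MS/MS.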
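Throughout, for Tissue AUC0-8 h, Lung: fasted 7-week-old rats, three per group, tissue sampled up to 8 h post-dose and urine collected over 0–24 h, with conjugates measured after alkaline hydrolysis, concentrations by LC-MS/MS.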
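Throughout, for Tissue Cmax, Kidney: fasted 7-week-old rats, three per group, tissue sampled up to 8 h post-dose and urine collected over 0–24 h, with conjugates measured after alkaline hydrolysis, concentrations by LC-MS/MS.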

Sequence of hERG K+ channel (Q12809 whole entry): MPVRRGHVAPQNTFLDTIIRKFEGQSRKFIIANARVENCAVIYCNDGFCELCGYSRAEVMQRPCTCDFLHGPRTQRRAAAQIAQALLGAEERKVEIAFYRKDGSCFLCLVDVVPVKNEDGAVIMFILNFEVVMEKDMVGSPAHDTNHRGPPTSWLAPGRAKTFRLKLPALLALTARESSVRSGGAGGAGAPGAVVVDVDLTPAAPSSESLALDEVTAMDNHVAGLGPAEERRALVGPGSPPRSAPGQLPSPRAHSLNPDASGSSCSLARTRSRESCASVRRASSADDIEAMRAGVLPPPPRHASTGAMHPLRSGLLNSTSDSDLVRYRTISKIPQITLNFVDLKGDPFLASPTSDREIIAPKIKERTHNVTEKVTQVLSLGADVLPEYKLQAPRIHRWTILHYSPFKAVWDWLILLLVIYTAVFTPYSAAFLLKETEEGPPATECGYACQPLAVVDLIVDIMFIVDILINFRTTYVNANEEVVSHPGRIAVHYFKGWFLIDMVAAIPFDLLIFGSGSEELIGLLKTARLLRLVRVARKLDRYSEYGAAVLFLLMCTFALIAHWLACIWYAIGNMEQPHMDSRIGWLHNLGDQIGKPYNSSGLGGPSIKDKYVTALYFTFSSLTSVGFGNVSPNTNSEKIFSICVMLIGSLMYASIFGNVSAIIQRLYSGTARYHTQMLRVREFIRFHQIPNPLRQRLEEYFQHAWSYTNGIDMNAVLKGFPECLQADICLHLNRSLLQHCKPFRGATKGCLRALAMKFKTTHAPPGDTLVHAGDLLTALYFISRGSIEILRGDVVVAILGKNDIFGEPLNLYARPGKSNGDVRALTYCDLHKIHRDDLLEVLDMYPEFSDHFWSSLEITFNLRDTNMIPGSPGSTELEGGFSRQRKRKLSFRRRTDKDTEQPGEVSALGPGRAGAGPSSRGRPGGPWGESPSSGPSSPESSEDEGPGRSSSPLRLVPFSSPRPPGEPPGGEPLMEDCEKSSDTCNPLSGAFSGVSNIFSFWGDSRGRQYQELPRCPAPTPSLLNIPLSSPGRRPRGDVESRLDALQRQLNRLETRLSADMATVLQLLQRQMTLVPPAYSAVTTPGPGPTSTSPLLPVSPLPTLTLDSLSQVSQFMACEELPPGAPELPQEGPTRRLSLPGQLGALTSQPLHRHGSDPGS

CO/N=C1\CN(c2nc3c(cc2F)c(=O)c(C(=O)O)cn3C2CC2)CC1CN (centres unmarked) [Gemifloxacin, gemifloxacin]
Average score in GPMT [1]: 6.8 | side effect of rash in phase 3 clinical trial [2]: frequently develops the side effect of rash

COc1c(N2C[C@H](C)[C@@](C)(N)C2)c(F)cc2c(=O)c(C(=O)O)cn([C@@H]3C[C@@H]3F)c12 (single isomer, unassigned) [Example 2, 7-[(3R*,4S*)-3-Amino-3,4-dimethylpyrrolidin-1-yl]-6-fluoro-1-[(1R,2S)-2-fluorocyclopropyl]-8-methoxy-1,4-dihydro-4-oxoquinoline-3-carboxylic acid]
MIC [3]: 0.05 mg/L (≈ 0.123 µM) | MIC [4]: 0.1 mg/L (≈ 0.245 µM) | MIC [5]: 0.78 mg/L (≈ 1.91 µM) | MIC [6]: 0.012 mg/L (≈ 0.0295 µM) | MIC [7]: 0.025 mg/L (≈ 0.0614 µM) | MIC [8]: 0.2 mg/L (≈ 0.491 µM) | AUC(0-t) [9]: 1.31 µg·h/mL | Cmax [9]: 0.67 µg/mL | micronucleus induction rate versus control, evaluation result [10]: negative | MIC [11]: 0.025 mg/L (≈ 0.0614 µM) | inhibition at 30 µM [12]: 3.8 ± 2.1% | inhibition at 100 µM [12]: 8.5 ± 1.2% | inhibition at 300 µM [12]: 18.2 ± 4.2% | Recovery (%) in urine in relation to the amount administered, Recovery (%) including conjugate [13]: 26.6% | Tissue AUC0-8 h, Kidney [13]: 14.7 µg·h/mL | Tissue AUC0-8 h, Liver [13]: 17.4 µg·h/mL | Tissue AUC0-8 h, Lung [13]: 8.07 µg·h/mL | Tissue Cmax, Kidney [13]: 7.78 µg/g | Tissue Cmax, Liver [13]: 10.2 µg/g | Tissue Cmax, Lung [13]: 2.46 µg/g | MIC [14]: 0.1 mg/L (≈ 0.245 µM) | MIC [15]: 0.2 mg/L (≈ 0.491 µM) | MIC [16]: 0.1 mg/L (≈ 0.245 µM)

COc1c(N2C[C@@H](N)C3(CC3)C2)c(F)cc2c(=O)c(C(=O)O)cn([C@@H]3C[C@@H]3F)c12 [Comparative compound 1]
MIC [3]: 0.05 mg/L (≈ 0.123 µM) | MIC [4]: 0.025 mg/L (≈ 0.0617 µM) | MIC [5]: 0.39 mg/L (≈ 0.962 µM) | MIC [6]: ≤ 0.003 mg/L | MIC [7]: 0.012 mg/L (≈ 0.0296 µM) | MIC [8]: 0.1 mg/L (≈ 0.247 µM) | Cmax [9]: 0.82 µg/mL | MIC [11]: 0.006 mg/L (≈ 0.0148 µM) | Recovery (%) in urine in relation to the amount administered, Recovery (%) including conjugate [17]: 32.9% | inhibition at 30 µM [12]: 6.7 ± 8.3% | inhibition at 100 µM [12]: 13.5 ± 3.1% | inhibition at 300 µM [12]: 24.8 ± 16.5% | MIC ([18]; H37RV, strain H37Rv): 0.06 mg/L (≈ 0.148 µM) | MIC ([18]; strain Kurono): 0.06 mg/L (≈ 0.148 µM) | MIC ([18]; strain Ravenel): 0.06 mg/L (≈ 0.148 µM) | MIC ([18]; strain TB-s 2): 0.125 mg/L (≈ 0.308 µM) | MIC ([18]; strain TB-s 3): 0.125 mg/L (≈ 0.308 µM) | MIC ([18]; strain TB-s 4): 0.125 mg/L (≈ 0.308 µM) | MIC ([18]; strain TB-s 5): 0.06 mg/L (≈ 0.148 µM) | MIC ([18]; strain TB-s 6): 0.125 mg/L (≈ 0.308 µM) | MIC ([18]; strain TB-s 7): 0.25 mg/L (≈ 0.617 µM) | MIC ([18]; strain TB-s 8): 0.06 mg/L (≈ 0.148 µM) | MIC ([18]; strain TB-s 9): 0.125 mg/L (≈ 0.308 µM) | MIC ([18]; strain TB-s 10): 0.06 mg/L (≈ 0.148 µM) | MIC ([18]; strain TB-s 11): 0.125 mg/L (≈ 0.308 µM) | MIC ([18]; strain TB-s 12): 0.25 mg/L (≈ 0.617 µM) | MIC ([18]; strain TB-s 13): 0.125 mg/L (≈ 0.308 µM) | MIC ([18]; strain TB-s 14): 0.125 mg/L (≈ 0.308 µM) | MIC ([18]; strain TB-s 15): 0.125 mg/L (≈ 0.308 µM) | MIC ([18]; strain TB-s 16): 0.125 mg/L (≈ 0.308 µM) | MIC ([18]; strain TB-s 17): 0.125 mg/L (≈ 0.308 µM) | MIC ([18]; strain TB-s 18): 0.125 mg/L (≈ 0.308 µM) | MIC ([18]; strain TB-s 19): 0.125 mg/L (≈ 0.308 µM) | MIC ([18]; strain TB-s 20): 0.25 mg/L (≈ 0.617 µM) | MIC ([18]; strain TB-s 21): 0.125 mg/L (≈ 0.308 µM) | MIC ([18]; strain TB-s 22): 0.06 mg/L (≈ 0.148 µM) | Recovery (%) in urine in relation to the amount administered, Recovery (%) including conjugate [13]: 23.1% | Serum AUC0-8 h [13]: 1.59 µg·h/mL | Tissue AUC0-8 h, Kidney [13]: 19.3 µg·h/mL | Tissue AUC0-8 h, Liver [13]: 15.0 µg·h/mL | Tissue AUC0-8 h, Lung [13]: 6.77 µg·h/mL | Tissue Cmax, Kidney [13]: 8.63 µg/g | Tissue Cmax, Liver [13]: 9.3 µg/g | Tissue Cmax, Lung [13]: 2.59 µg/g | AUC(0-t) [19]: 5.11 µg·h/mL | Cmax [19]: 0.84 µg/mL | half-life [19]: 5 h | MIC ([20]; strain 1 (QR-3)): 1 mg/L (≈ 2.47 µM) | MIC ([20]; strain 2 (QR-6)): 128 mg/L (≈ 316 µM) | MIC ([20]; strain 3 (QR-1)): 2 mg/L (≈ 4.93 µM) | MIC ([20]; strain 4 (QR-9)): 32 mg/L (≈ 78.9 µM) | MIC ([20]; strain MDR 1): 0.5 mg/L (≈ 1.23 µM) | MIC ([20]; strain MDR 3): 0.5 mg/L (≈ 1.23 µM) | MIC ([20]; strain MDR 4): 0.5 mg/L (≈ 1.23 µM) | MIC ([20]; strain MDR 5): 1 mg/L (≈ 2.47 µM) | MIC ([20]; strain MDR 7): 0.5 mg/L (≈ 1.23 µM) | MIC ([20]; strain MDR 9): 0.5 mg/L (≈ 1.23 µM) | MIC ([20]; strain MDR 12): 0.5 mg/L (≈ 1.23 µM) | MIC ([20]; strain S 1): 2 mg/L (≈ 4.93 µM) | Evaluation in GPMT [1]: Positive | Average score in GPMT [1]: 6.8 | MIC [14]: 0.05 mg/L (≈ 0.123 µM) | MIC [15]: 0.1 mg/L (≈ 0.247 µM) | MIC [16]: 0.05 mg/L (≈ 0.123 µM)
